Test results from patent US20160185717A1, “COMPOUNDS WITH ANTIBACTERIAL ACTIVITY” (FUNDACIÓN MEDINA. CENTRO DE EXCELENCIA EN INVESTIGACIÓN DE …, priority 2013, published 2016).
In brackets after ≈: the same amount, converted by molar mass.

What was measured:
[1] = system: P. aeruginosa ATCC 27853; test: Broth microdilution MIC; assay type: cell-based, Pseudomonas aeruginosa; details: P. aeruginosa ATCC 27853, wild type
Experimental: (§1) Antibacterial activity of compounds MDN-0057, MDN-0058, MDN-0059 and MDN-0060 was evaluated using the broth microdilution methodology. This method is used to determine minimum inhibitory concentrations (MICs) which are defined as the lowest concentration of an antimicrobial compound that will inhibit the visible growth of a microorganism after overnight incubation.
(§2) In the microbroth dilution assay, microorganisms were selected by streaking bacteria culture from a cryovial into Mueller Hinton II (MHII) agar plate(s) and incubate overnight at 37° C. Thereafter, 3 to 5 characteristic fresh colonies were selected and suspended in 25 mL of MHII broth media for 2 hours shaking at 220 rpm. The 2 hour broth cultures were adjusted to an optical density of 0.111 at 660 nm and then diluted to 1:100 in order to obtain assay inoculums.
(§3) The four compounds evaluated were serially diluted in 100% DMSO with a dilution factor of 2 to provide 10 compound concentrations starting at 8 mg/mL.
(§4) For the assays, 90 μL/well of the appropriated diluted inoculum were mixed with 1.6 μL/well of each compound concentration and 8.4 μL/well of MHII broth media, resulting in an additional dilution of these compounds to yield concentrations in the assay wells from 128 μg/mL to 0.25 μg/mL. After that, the assay plates were read in a Tecan Ultraevolution spectrophotometer at 612 nm for T0 (zero time). Then, the plates were statically incubated at 37° C. for 20 hours. After incubation, they were shaken in a DPC Micromix-5 and read again for Tf (final time). Percentage of growth inhibition was calculated using the following normalization:
(§5) % Inhibition=[1-[(TfSample-T0Sample)−(TfBlank-T0blank)/(TfGrowth-T0Growth)−(TfBlank-T0blank)]×100. • Where, • T0 Sample=the absorbance of the strain growth in the presence of sample measured at zero time (before incubation). • Tf Sample=the absorbance of the strain growth in the presence of sample measured at final time (after incubation) • T0 Growth=the absorbance of the strain growth in the absence of sample measured at zero time (before incubation). • Tf Growth=the absorbance of the strain growth in the absence of sample measured at final time (after incubation). • T0 Blank=the absorbance of the broth medium (blank) measured at zero time (before incubation). • Tf Blank=the absorbance of the broth medium (blank) measured at final time (after incubation).

[2] = system: A. baumannii 5973; test: Broth microdilution MIC; assay type: cell-based, Acinetobacter baumannii; details: A. baumannii 5973, Clinical isolate
Experimental: as §1, §2, §3, §4, §5

[3] = system: P. aeruginosa 839; test: Broth microdilution MIC; assay type: cell-based, Pseudomonas aeruginosa; details: P. aeruginosa 839, ΔMexAB-OprM
Experimental: as §1, §2, §3, §4, §5

[4] = system: E. coli 219; test: Broth microdilution MIC; assay type: cell-based, Escherichia coli; details: E. coli 219, ΔAcrAB::Tn903kan
Experimental: as §1, §2, §3, §4, §5

[5] = system: E. coli ATCC 25922; test: Broth microdilution MIC; assay type: cell-based, Escherichia coli; details: E. coli ATCC 25922, wild type
Experimental: as §1, §2, §3, §4, §5

[6] = system: A. baumannii 2443; test: Broth microdilution MIC; assay type: cell-based, Acinetobacter baumannii; details: A. baumannii 2443, Clinical isolate
Experimental: as §1, §2, §3, §4, §5

[7] = system: A. baumannii 2444; test: Broth microdilution MIC; assay type: cell-based, Acinetobacter baumannii; details: A. baumannii 2444, ΔadellJK
Experimental: as §1, §2, §3, §4, §5

[8] = system: A. baumannii 2446; test: Broth microdilution MIC; assay type: cell-based, Acinetobacter baumannii; details: A. baumannii 2446, ΔadeABC, ΔadellJK
Experimental: as §1, §2, §3, §4, §5

[9] = system: A. baumannii 2445; test: Broth microdilution MIC; assay type: cell-based, Acinetobacter baumannii; details: A. baumannii 2445, ΔadeABC
Experimental: as §1, §2, §3, §4, §5

[10] = system: A. baumannii ATCC 19606; test: Broth microdilution MIC; assay type: cell-based, Acinetobacter baumannii; details: A. baumannii ATCC 19606, Clinical isolate
Experimental: as §1, §2, §3, §4, §5

[11] = system: A. baumannii ATCC BAA-747; test: Broth microdilution MIC; assay type: cell-based, Acinetobacter baumannii; details: A. baumannii ATCC BAA-747, Clinical isolate
Experimental: as §1, §2, §3, §4, §5

[12] = system: DNA synthesis in E. coli acrAB::Tn903; test: Macromolecular labeling assay, DNA synthesis; assay type: cell-based, Escherichia coli; details: at up to 8-fold the MIC, [3H] thymidine
Experimental: (§6) The macromolecular synthesis assay, in which the inhibition of the intracellular building blocks of macromolecules are measured, provides guidance for understanding the broad MOA of compounds
(§7) The inhibitory effect on synthesis of macromolecules in the lipid, cell wall, DNA, RNA and protein synthesis pathways was determined in growing cells of E. coli acrAB::Tn903. Cells were grown at 35° C. overnight on Trypticase Soy agar, and this culture was used to inoculate 15 ml of Mueller Hinton broth II (MHB). The culture was grown to early exponential growth phase (OD600=0.2 to 0.3) while incubating in a shaker at 35° C. and 200 rpm.
(§8) Cells in early exponential phase were exposed to MDN-0057, and their incorporation of radioactive precursors in each pathway was determined. Rifampicin, Ciprofloxacin, Tetracycline, Imipenem and Irgasan were included as positive controls for inhibition of RNA, DNA, protein, cell wall and lipid synthesis, respectively. (FIG. 1)
(§9) DNA, RNA, and protein synthesis: When cells reached early exponential phase, 100 μL of culture was added to triplicate wells containing various concentrations of MDN-0057 or control antibiotics (2.5 μL) at 40× the final concentration in 100% DMSO or deionized water (dH2O). […] After washing five times with 200 μL per well of cold 5% TCA, the filters were allowed to dry, and then counted using a Packard Top Count microplate scintillation counter.

[13] = system: K. pneumoniae 847; test: Broth microdilution MIC; assay type: cell-based, Klebsiella pneumoniae; details: K. pneumoniae 847, Clinical isolate
Experimental: as §1, §2, §3, §4, §5

[14] = system: K. pneumoniae 21; test: Broth microdilution MIC; assay type: cell-based, Klebsiella pneumoniae; details: K. pneumoniae 21, permeable strain
Experimental: as §1, §2, §3, §4, §5

[15] = system: RNA synthesis in E. coli acrAB::Tn903; test: Macromolecular labeling assay, RNA synthesis; assay type: cell-based, Escherichia coli; details: at up to 8-fold the MIC, [3H] uridine
Experimental: as §6, §7, §8, §9

[16] = system: Escherichia coli acrAB::Tn903 (CB-219); test: Micro RI (resistance) bioassay on E. coli CB-219; assay type: cell-based
Experimental: (§10) The frequency of resistance to MDN-0057 and MDN-0058 was assessed on Escherichia coli acrAB::Tn903 (CB-219) and wild type (WT) Acinetobacter baumannii (ATCC BAA-747). For this purpose, the Minimum Inhibitory Concentration of MDN-0057 versus each strain was determined by broth microdilution as described in Clinical Laboratory Standards Institute publication M07-A9, Vol. 32, No. 2., “Methods for Dilution Antimicrobial Susceptibility Tests for Bacteria that Grow Aerobically; Approved Standard—Ninth Edition,” January 2012. Six-well plates containing Mueller Hinton II agar (5 mL per well) were prepared with MDN-0057 or MDN-0058 at concentrations 4-fold and 8-fold above the MIC. Cultures were grown to late log phase and spread on the agar. Plates were incubated at 37° C. and examined after one and two days of incubation.
(§11) Six to eight isolates from each species were obtained by re-streaking growth from the plates on antibiotic-free tryptic soy agar plates, and MICs of MDN-0057 versus the isolates were subsequently determined. MICs of the E. coli isolates were elevated at least 16-64-fold relative to their parent strain, CB-219.

[17] = system: protein synthesis in E. coli acrAB::Tn903; test: Macromolecular labeling assay, protein synthesis; assay type: cell-based, Escherichia coli; details: at up to 8-fold the MIC, [3H] leucine
Experimental: as §6, §7, §8, §9

[18] = system: lipid synthesis in E. coli acrAB::Tn903; test: Macromolecular labeling assay, lipid synthesis; assay type: cell-based, Escherichia coli; details: at up to 8-fold the MIC, [3H] glycerol
Experimental: as §6, §7, §8
Lipid synthesis: Bacterial cells were grown to early exponential growth phase in MHB and 100 μL was added to 1.5 mL eppendorf tubes (in triplicate) containing various concentrations of MDN-0057 or control antibiotics as described above. Following a 5 min incubation at room temperature, [3H] glycerol was added at 0.5 μCi per reaction. […] Samples were then counted via liquid scintillation counting.

[19] = system: cell wall synthesis in E. coli acrAB::Tn903; test: Macromolecular labeling assay, cell wall synthesis; assay type: cell-based, Escherichia coli
Experimental: as §6, §7
Cells in early exponential phase were exposed to MDN-0057, and their incorporation of radioactive precursors in each pathway was determined. […]
Cell wall synthesis: Bacterial cells in early exponential growth phase were transferred to M9 minimal medium and added to 1.5 ml eppendorf tubes (100 μl/tube) containing various concentrations of MDN-0057 or control antibiotics (2.5 μl) at 40× the final concentration in 100% DMSO or dH2O as described above. […] After washing three times with 5 ml of 0.1% SDS, the filters were rinsed two times with 5 mL of dH2O, allowed to dry, and then counted using a Beckman LS3801 liquid scintillation counter.

[20] = system: wild type (WT) Acinetobacter baumannii (ATCC BAA-747); test: Resistance bioassay on A. baumannii; assay type: cell-based
Experimental: as §10, §11

[21] = system: S. aureus ATCC 29213; test: Broth microdilution MIC; assay type: cell-based, Staphylococcus aureus
Experimental: as §1, §2, §3, §4, §5

[22] = six to eight isolates re-streaked from the plates

## [C-]#[N+]C(=C)C(Cc1ccc(OC)cc1)([N+]#[C-])C1CC(O)C=CC1OC(C)=O (stereo not drawn) [MDN-0060]
[1]
  MIC: 32 to 64 µg/mL
[2]
  MIC: 1 to 2 µg/mL

## [C-]#[N+]C(=C)C(Cc1ccc(OC)cc1)([N+]#[C-])C1CC(O)CCC1OC(=O)CO (stereo not drawn) [MDN-0057]
[3]
  MIC: 1 to 2 µg/mL
[1]
  MIC: 2 to 8 µg/mL
[4]
  MIC: 0.125 to 0.5 µg/mL
[5]
  MIC: 16 to 64 µg/mL
[6]
  MIC: 4 µg/mL (≈ 10.4 µM)
[7]
  MIC: 0.25 µg/mL (≈ 0.65 µM)
[8]
  MIC: <0.06 µg/mL
[9]
  MIC: 2 µg/mL (≈ 5.2 µM)
[2]
  MIC: 0.25 µg/mL (≈ 0.65 µM)
[10]
  MIC: 2 to 4 µg/mL
[11]
  MIC: 2 to 4 µg/mL
[12]
  Inhibition of DNA synthesis: Little or no inhibition
[13]
  MIC: 64 µg/mL (≈ 166 µM)
[14]
  MIC: 0.25 µg/mL (≈ 0.65 µM)
[15]
  Inhibition of RNA synthesis: Little or no inhibition
[16]; E. coli acrAB::Tn903, 4-fold and 8-fold above the broth MIC, after 48 hours of incubation
  Growth on agar containing compound (frequency of resistance): pinpoint colonies that were too numerous to count
[16]; E. coli_219, Micro RI, Isolate #1_4X
  MIC: 0.25 µg/mL (≈ 0.65 µM)
[16]; E. coli_219, Micro RI, Isolate #2_8X
  MIC: 0.25 µg/mL (≈ 0.65 µM)
[16]; E. coli_219, Micro RI, Isolate #3_4X
  MIC: 0.25 µg/mL (≈ 0.65 µM)
[16]; E. coli_219, Micro RI, Isolate #4_4X
  MIC: 0.25 µg/mL (≈ 0.65 µM)
[16]; E. coli_219, Micro RI, Isolate #5_8X
  MIC: 0.25 µg/mL (≈ 0.65 µM)
[16]; E. coli_219, Parent
  MIC: 0.125 to 0.5 µg/mL
[16]; [22]
  Elevation of MICs of the E. coli isolates relative to parent strain CB-219: 16-64 fold
[17]
  Inhibition of protein synthesis: Little or no inhibition
[18]
  Inhibition of lipid synthesis: Little or no inhibition
[19]; at 2 to 8-fold the MIC, [14C] N-acetylglucosamine, apparent dose-response
  Maximum inhibition of cell wall synthesis: ca. 75%
[19]; at 2× MIC, strain E. coli acrAB::Tn903
  Inhibition of Macromolecular Synthesis (FIG. 1 legend): signal for Cell Wall Biosynthesis
[20]; A. baumannii, 4-fold and 8-fold above the broth MIC, after 24 hours of incubation
  Growth on agar containing compound (frequency of resistance): a lawn of colonies was apparent
[20]; [22]
  MICs of the A. baumannii isolates compared with parent strain A. baumannii BAA-747: not significantly different
[21]
  MIC against S. aureus (No activity): 128 µg/mL (≈ 333 µM)
[21]; S. aureus ATCC 29213, wild type
  MIC: >128 µg/mL
